Measured values published in patent US20260265305A1, “POLYPEPTIDE DERIVATIVE FOR ORAL DELIVERY” (Hangzhou Sciwind Biosciences Co., Ltd., priority 2023, published 2026).
Numbered stars: 1 amine (or outer) side, 2 acyl side, 3 side chain; on linkers, the order of the positions; unused ones are H or OH. Bridge positions count the residues as written; N and C are the ends. Square brackets hold non-standard residues; d marks the D form. Ends that are not written are not given here. Peptide text beside a SMILES is read from it. * marks the point of attachment. C18 diacid = O=C(O)CCCCCCCCCCCCCCCCC(=O)*; βAsp = O=C(O)[C@H](CC(=O)[*:2])N[*:1]; Hyp = O=C(O)[C@@H]1C[C@@H](O)CN1; AEEA = NCCOCCOCC(=O)O

T1: amylin receptor (hAMY3R) (Homo sapiens, UniProt O60896+P30988)
T1 construct: host or cells: CHO-K1/Ga15/AMY3 cells, further stably transfected with a CRE-luciferase plasmid
T1 sequence (P30988 25-474): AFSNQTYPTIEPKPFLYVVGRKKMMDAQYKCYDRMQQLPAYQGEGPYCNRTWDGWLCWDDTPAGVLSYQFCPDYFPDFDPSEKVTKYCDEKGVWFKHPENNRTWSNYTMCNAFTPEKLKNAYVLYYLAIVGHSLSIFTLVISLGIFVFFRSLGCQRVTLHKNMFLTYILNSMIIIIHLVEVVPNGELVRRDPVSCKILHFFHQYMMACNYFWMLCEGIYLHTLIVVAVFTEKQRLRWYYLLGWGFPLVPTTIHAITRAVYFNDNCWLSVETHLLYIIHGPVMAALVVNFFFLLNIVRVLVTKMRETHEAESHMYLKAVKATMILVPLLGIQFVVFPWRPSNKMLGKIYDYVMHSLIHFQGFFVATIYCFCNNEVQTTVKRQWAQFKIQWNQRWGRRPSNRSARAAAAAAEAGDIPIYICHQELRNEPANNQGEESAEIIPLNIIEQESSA
T1 sequence (O60896 24-148): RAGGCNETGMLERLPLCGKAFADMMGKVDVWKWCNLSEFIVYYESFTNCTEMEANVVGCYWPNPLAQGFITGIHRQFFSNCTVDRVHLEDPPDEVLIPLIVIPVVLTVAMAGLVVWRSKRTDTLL

T2: amylin receptor (hAMY3R) (human (printed as hAMY3R), UniProt P30988 25-474; O60896 24-148)
T2 sequence (looked up) 1: T1 sequence (P30988 25-474)
T2 sequence (looked up) 2: T1 sequence (O60896 24-148)


Experiments:
[1] = dog, in vivo, 7 mg
Method: Whole blood of the animals was collected pre dose (−10 min) and 2 h, 4 h, and 8 h post dose on Day 1, pre dose (−10 min) and 2 h and 4 h post dose on Day 2-Day 4, and pre dose (−10 min) and 2 h, 4 h, 8 h, 24 h, 48 h, and 72 h post dose on Day 5, and processed into plasma using heparin sodium as an anticoagulant. […] Experimental data was plotted using GraphPad Prism9.3.1.

[2] = molecular target: T1, amylin receptor (hAMY3R); assay: Amylin receptor agonism testing, CRE-luciferase assay in stably transfected CHO-K1/Ga15/AMY3 cells; assay type: cell-based; settings: incubation of 4 hours (N2 and N3 retested); Table 3 lower part; read-out: EC50, activity against the amylin receptor in cells
From the text: The objective of this assay is to test the potency of the polypeptide derivatives in the present application on amylin and calcitonin receptors in vitro using a luciferase assay.
Using the standard protocol for construction of an amylin receptor/CRE-luc cell line, CHO-K1/Ga15/AMY3 cells (purchased from GenScript, with the calcitonin receptor and the receptor activity modifying peptide (RAMP) constructed already) were transfected with a plasmid containing a luciferase expression cassette driven by multiple copies of cAMP response elements (CREs). The cells were cultured in an F12 medium containing 200 ug/mL Zeocin, 2 ug/mL puromycin, 100 ug/mL hygromycin, and 400 ug/mL G418 to afford a stably transfected amylin receptor/CRE-luc cell line.
To each well of a white 96-well plate was added 50 μL of the tested sample solution at a respective concentration.
The stably transfected amylin receptor/CRE-luc CHO cells were resuspended in the growth medium at a certain density, and 50 μL of the cell suspension was added at a density of about 20,000 cells per well to the white 96-well plate containing the tested sample solution. After incubation of 24 hours at 37° C. and 5% CO2, 100 μL of a Luciferase substrate was added to each well, incubated for 3 minutes, and finally was tested for luminescence on SpectraMax L (Molecular Devices) with the software SoftMax Pro 7.0.3 GxP. A standard curve was plotted using the fluorescent intensities for calculation of EC50.

[3] = molecular target: T2, amylin receptor (hAMY3R); assay: cell-based or functional assay

Row | Molecule | oral bioavailability [1] | EC50 [2] | EC50, CRE-luciferase reporter in amylin receptor CHO cells, 24 h [3]
1 | CC[C@H](C)[C@H](NC(=O)[C@@H]1CCCN1C(=O)[C@H](CCCCN)NC(=O)[C@H](CC(C)C)NC(=O)[C@H](CC(N)=O)NC(=O)[C@H](CC(N)=O)NC(=O)[C@H](CO)NC(=O)[C@H](CO)NC(=O)[C@H](Cc1c[nH]cn1)NC(=O)[C@H](CCCNC(=N)N)NC(=O)[C@H](CC(C)C)NC(=O)[C@H](Cc1ccccc1)NC(=O)[C@H](CC(=O)O)NC(=O)[C@H](C)NC(=O)[C@H](CC(C)C)NC(=O)[C@H](CCCNC(=N)N)NC(=O)[C@H](CCC(N)=O)NC(=O)[C@@H](NC(=O)[C@H](C)NC(=O)[C@@H]1CSSC[C@H](NC(=O)[C@H](CCCCN)NC(=O)COCCOCCNC(=O)COCCOCCNC(=O)C[C@H](NC(=O)CCCCCCCCCCCCCCCCC(=O)O)C(=O)O)C(=O)N[C@@H](CC(N)=O)C(=O)N[C@@H]([C@@H](C)O)C(=O)N[C@@H](C)C(=O)N[C@@H]([C@@H](C)O)C(=O)N1)[C@@H](C)O)C(=O)N[C@@H](CC(C)C)C(=O)N1CCC[C@H]1C(=O)N1CCC[C@H]1C(=O)N[C@H](C(=O)N[C@@H](CC(N)=O)C(=O)N[C@H](C(=O)NCC(=O)N[C@@H](CO)C(=O)N[C@@H](CC(N)=O)C(=O)N[C@H](C(=O)N1C[C@H](O)C[C@H]1C(N)=O)[C@@H](C)O)C(C)C)[C@@H](C)O [N3] ({C18 diacid-βAsp-AEEA-AEEA}-KCNTATCATQRLADFLRHSSNNLKPILPPTNVGSNT[Hyp]-NH2; disulfide 2-7) | significantly improving the bioavailability | 0.001 nM | 
2 | ASQLSTAVLGRLSQELHRLQDYPRTDVGSGSP-NH2 [M5] |  |  | 0.033 nM
